Test results from ChEMBL document CHEMBL1132621, “Synthesis, structure-activity relationships, and in vivo evaluations of substituted di-tert-butylphenols as a novel class of potent, selective, and orally active cyclooxygenase-2 inhibitors. 1. Thiazolone and oxazolone series” (J Med Chem, 1999).
pIC50: −log10 of the molar value.

Tests used:
[1] = target: T1, Prostaglandin G/H synthase 1 (Ovis aries) (UniProt P05979); assay: IC50 value against ovine Prostaglandin G/H synthase 1; Not active; settings: concentration not given here
T1 sequence (whole entry): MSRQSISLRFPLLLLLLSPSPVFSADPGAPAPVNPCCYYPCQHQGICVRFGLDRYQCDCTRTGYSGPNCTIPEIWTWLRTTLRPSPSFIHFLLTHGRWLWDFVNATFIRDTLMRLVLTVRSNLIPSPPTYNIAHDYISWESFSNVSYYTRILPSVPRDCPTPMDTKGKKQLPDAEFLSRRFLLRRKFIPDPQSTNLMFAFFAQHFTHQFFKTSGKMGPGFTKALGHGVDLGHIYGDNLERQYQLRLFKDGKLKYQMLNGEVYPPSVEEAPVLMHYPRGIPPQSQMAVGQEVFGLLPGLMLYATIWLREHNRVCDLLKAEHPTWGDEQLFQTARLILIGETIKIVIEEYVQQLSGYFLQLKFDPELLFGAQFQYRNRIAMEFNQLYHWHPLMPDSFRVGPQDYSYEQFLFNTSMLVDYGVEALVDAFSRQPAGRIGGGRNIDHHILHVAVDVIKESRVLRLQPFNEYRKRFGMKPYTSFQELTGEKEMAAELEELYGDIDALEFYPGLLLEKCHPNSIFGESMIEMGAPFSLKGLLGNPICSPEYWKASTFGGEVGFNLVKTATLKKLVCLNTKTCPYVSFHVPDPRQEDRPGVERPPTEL

[2] = target: T2, Prostaglandin G/H synthase 2 (Homo sapiens, UniProt P35354); assay: IC50 against recombinant human Prostaglandin G/H synthase 2
T2 sequence (P35354 whole entry): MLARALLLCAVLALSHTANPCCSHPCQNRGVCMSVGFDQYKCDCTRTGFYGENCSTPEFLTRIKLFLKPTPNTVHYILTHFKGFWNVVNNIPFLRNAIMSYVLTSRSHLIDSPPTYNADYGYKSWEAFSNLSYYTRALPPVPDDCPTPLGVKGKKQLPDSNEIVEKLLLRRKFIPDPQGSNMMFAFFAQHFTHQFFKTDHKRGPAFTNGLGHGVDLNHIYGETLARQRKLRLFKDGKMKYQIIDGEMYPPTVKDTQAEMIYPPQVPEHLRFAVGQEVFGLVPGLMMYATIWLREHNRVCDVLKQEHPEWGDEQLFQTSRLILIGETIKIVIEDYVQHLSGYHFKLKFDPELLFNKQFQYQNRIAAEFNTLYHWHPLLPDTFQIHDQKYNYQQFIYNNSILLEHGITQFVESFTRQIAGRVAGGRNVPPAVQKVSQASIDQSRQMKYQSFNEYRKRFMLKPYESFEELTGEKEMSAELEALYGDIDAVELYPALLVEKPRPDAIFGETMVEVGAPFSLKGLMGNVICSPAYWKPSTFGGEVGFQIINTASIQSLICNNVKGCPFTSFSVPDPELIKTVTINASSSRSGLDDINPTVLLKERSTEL

[3] = target: T3, Prostaglandin G/H synthase 2 (Mus musculus, UniProt Q05769)
T3 sequence (Q05769 whole entry): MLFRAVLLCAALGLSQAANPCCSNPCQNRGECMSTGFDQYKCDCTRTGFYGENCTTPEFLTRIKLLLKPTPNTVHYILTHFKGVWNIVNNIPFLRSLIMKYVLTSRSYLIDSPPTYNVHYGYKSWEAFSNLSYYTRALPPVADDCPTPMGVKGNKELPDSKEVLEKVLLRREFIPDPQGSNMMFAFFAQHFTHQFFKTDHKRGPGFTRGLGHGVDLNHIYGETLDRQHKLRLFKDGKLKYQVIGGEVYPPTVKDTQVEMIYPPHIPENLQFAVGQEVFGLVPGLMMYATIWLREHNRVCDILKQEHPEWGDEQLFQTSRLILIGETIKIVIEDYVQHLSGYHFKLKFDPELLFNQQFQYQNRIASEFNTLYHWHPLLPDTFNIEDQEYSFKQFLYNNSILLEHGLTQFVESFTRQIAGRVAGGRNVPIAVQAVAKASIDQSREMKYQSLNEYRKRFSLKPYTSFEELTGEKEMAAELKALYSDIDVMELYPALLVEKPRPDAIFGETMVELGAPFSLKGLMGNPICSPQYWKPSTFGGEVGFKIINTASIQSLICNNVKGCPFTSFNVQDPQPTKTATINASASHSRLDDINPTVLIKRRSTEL
Description: IC50 value was determined against Prostaglandin G/H synthase 2 of J7744A.1 cell lines.

[4] = target: T4, Prostaglandin G/H synthase 1 (Homo sapiens, UniProt P23219); assay: IC50 value was determined against Prostaglandin G/H synthase 1 of human platelet rich plasma; Not active
T4 sequence (P23219 whole entry): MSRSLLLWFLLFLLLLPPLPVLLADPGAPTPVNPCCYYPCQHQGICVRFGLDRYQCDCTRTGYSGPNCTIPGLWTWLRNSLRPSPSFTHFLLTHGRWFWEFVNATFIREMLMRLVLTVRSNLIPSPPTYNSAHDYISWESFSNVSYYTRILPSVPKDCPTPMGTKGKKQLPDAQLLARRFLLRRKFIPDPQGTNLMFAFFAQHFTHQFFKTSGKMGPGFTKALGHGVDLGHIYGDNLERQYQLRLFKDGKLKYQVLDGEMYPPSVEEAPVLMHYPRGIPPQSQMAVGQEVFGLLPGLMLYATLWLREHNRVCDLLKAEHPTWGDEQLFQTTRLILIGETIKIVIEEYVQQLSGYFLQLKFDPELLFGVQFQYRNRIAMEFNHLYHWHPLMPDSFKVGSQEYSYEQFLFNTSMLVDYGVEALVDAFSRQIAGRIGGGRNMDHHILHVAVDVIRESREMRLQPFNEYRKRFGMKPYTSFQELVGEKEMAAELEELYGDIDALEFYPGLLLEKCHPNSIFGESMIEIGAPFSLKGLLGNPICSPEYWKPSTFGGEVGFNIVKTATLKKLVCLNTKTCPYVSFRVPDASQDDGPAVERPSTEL

[5] = species: Rattus norvegicus; assay: Lesion frequency measured in rats; type: functional
[6] = species: Mus musculus; assay: ED50 measured by hyperalgesia assay; type: functional
[7] = species: Rattus norvegicus; assay: Percentage of gastric damage was measured in rats.; type: functional, Stomach
[8] = species: Rattus norvegicus; assay: ED50 measured by CFE assay; type: functional
[9] = species: Rattus norvegicus; assay: Percentage inhibition of the prostaglandin synthesis was measured in rats.; type: functional
[10] = target: T4, Prostaglandin G/H synthase 1; assay: (§1) IC50 against Prostaglandin G/H synthase 1 from human platelet rich plasma
[11] = target: T5, Prostaglandin G/H synthase 1 (Ovis aries, UniProt P05979)
T5 sequence (P05979 whole entry): T1 sequence (whole entry)
Description: IC50 against ovine Prostaglandin G/H synthase 1

[12] = target: T4, Prostaglandin G/H synthase 1; assay: as §1
[13] = target: T1, Prostaglandin G/H synthase 1 (Ovis aries); assay: IC50 value against oCOX-1 at 10 uM
[14] = target: T2, Prostaglandin G/H synthase 2; assay: IC50 value against recombinant human Prostaglandin G/H synthase 2; not active
[15] = target: T6, Prostaglandin G/H synthase 2 (Homo sapiens) (UniProt P35354); assay: IC50 value against recombinant human Prostaglandin G/H synthase 2 at 10 uM
T6 sequence (whole entry): T2 sequence (P35354 whole entry)

[16] = target: T1, Prostaglandin G/H synthase 1 (Ovis aries); assay: IC50 value against oCOX-1 at 10 uM; Not active
[17] = target: T1, Prostaglandin G/H synthase 1 (Ovis aries); assay: IC50 value against ovine Prostaglandin G/H synthase 1 at 10 uM

## CCONC1=NC(=O)/C(=C/c2cc(C(C)(C)C)c(O)c(C(C)(C)C)c2)S1
[1]
  inhibition: < 20%
[2]
  pIC50: 5.49
[3]
  pIC50: 6.57
[4]
  pIC50: < 4.70

## CS(=O)(=O)Nc1ccc([N+](=O)[O-])cc1OC1CCCCC1 [NS-398]
[5]
  Lesion frequency: 0%
[6]
  ED40: 7.4 mg/kg
[7]
  Gastric damage: 0%
[8]
  ED40: 0.61 mg/kg
[9]
  Inhibition: 30.7%

## CC(C)(C)c1cc(/C=C2\SC(=O)NC2=O)cc(C(C)(C)C)c1O
[2]
  pIC50: 5.33
[10]
  pIC50: 5.03
[3]
  pIC50: 7.22
[11]
  pIC50: 4.38

## CONC1=NC(=O)/C(=C/c2cc(C(C)(C)C)c(O)c(C(C)(C)C)c2)O1
[10]
  pIC50: < 4.70
[3]
  pIC50: 6.10
[11]
  pIC50: 5.14

## CC(C)(C)c1cc(/C=C2\OC(N=C(N)N)=NC2=O)cc(C(C)(C)C)c1O
[2]
  pIC50: 5.29
[10]
  pIC50: 5.36
[3]
  pIC50: 6.36
[11]
  pIC50: 5.92

## COc1ccc2c(c1)c(CC(=O)O)c(C)n2C(=O)c1ccc(Cl)cc1 [INDOMETHACIN]
[5]
  Lesion frequency: 75%
[6]
  ED40: 0.6 mg/kg
[7]
  Gastric damage: 0.18%
[8]
  ED40: 1.6 mg/kg
[9]
  Inhibition: 96.5%

## CC(C)(C)c1cc(/C=C2\SC(N=C(N)N)=NC2=O)cc(C(C)(C)C)c1O
[2]
  pIC50: 4.68
[3]
  pIC50: 6.37
[11]
  pIC50: 8.21
[12]
  pIC50: 6.60

## CC(C)(C)c1cc(/C=C2\NC(=S)NC2=O)cc(C(C)(C)C)c1O
[2]
  pIC50: 6.59
[10]
  pIC50: 6.00
[3]
  pIC50: 7.08
[11]
  pIC50: 5.89

## CSC1=NC(=O)/C(=C/c2cc(C(C)(C)C)c(O)c(C(C)(C)C)c2)S1
[2]
  pIC50: 5.74
[3]
  pIC50: 5.80
[11]
  pIC50: 4.20
[12]
  pIC50: 4.84

## CON(C)C1=NC(=O)/C(=C/c2cc(C(C)(C)C)c(O)c(C(C)(C)C)c2)S1
[5]
  Lesion frequency: 25%
[6]
  ED40: 0.06 mg/kg
[2]
  pIC50: 4.74
[7]
  Damaged area: 0.04%
[3]
  pIC50: 5.80
[8]
  ED40: 8.1 mg/kg
[9]
  Inhibition: 52.2%
[11]
  pIC50: 4.29
[12]
  pIC50: 5.24

## C=CCONC1=NC(=O)/C(=C/c2cc(C(C)(C)C)c(O)c(C(C)(C)C)c2)S1
[1]
  inhibition: < 20%
[2]
  pIC50: 5.57
[3]
  pIC50: 5.80
[4]
  pIC50: < 4.70

## CONC1=NC(=O)/C(=C/c2cc(C(C)C)c(O)c(C(C)C)c2)S1
[2]
  pIC50: 6.24
[3]
  pIC50: < 4.70
[11]
  pIC50: < 4.70
[12]
  pIC50: < 4.70

## CONC1=NC(=O)/C(=C/c2cc(C(C)(C)C)c(O)c(C(C)(C)C)c2)S1 [listing 1 of 2 here]
[1]
  inhibition: < 20%

## CC(C)(C)c1cc(/C=C2\SC(NC#N)=NC2=O)cc(C(C)(C)C)c1O
[2]
  pIC50: 4.26
[3]
  pIC50: 6.64
[12]
  pIC50: < 4.70
[13]
  inhibition: < 20%

## CSC1=NC(=O)/C(=C/c2cc(C(C)(C)C)c(O)c(C(C)(C)C)c2)O1
[14]
  IC50: Not Active
[3]
  pIC50: 6.27
[11]
  pIC50: 5.80
[12]
  pIC50: 5.19

## CC(C)(C)c1cc(C=C2SC(=N)NC2=O)cc(C(C)(C)C)c1O [DARBUFELONE]
[15]
  inhibition: 41%
[3]
  pIC50: 7.16
[12]
  pIC50: 6.22
[16]
  inhibition: < 20%

## CC(C)(C)c1cc(/C=C2\OC(=O)NC2=O)cc(C(C)(C)C)c1O
[2]
  pIC50: 4.47
[10]
  pIC50: 5.92
[3]
  pIC50: 7.15
[11]
  pIC50: 7.02

## CC(C)(C)c1cc(/C=C2\SC(NO)=NC2=O)cc(C(C)(C)C)c1O
[2]
  pIC50: 5.82
[3]
  pIC50: 6.77
[11]
  pIC50: 4.28
[12]
  pIC50: 5.04

## C/C(=C1/SC(N=C(N)N)=NC1=O)c1cc(C(C)(C)C)c(O)c(C(C)(C)C)c1
[2]
  pIC50: 4.92
[10]
  pIC50: 6.23
[3]
  pIC50: 6.74
[11]
  pIC50: 6.34

## CC(C)c1cc(/C=C2\SC(N=C(N)N)=NC2=O)cc(C(C)C)c1O
[2]
  pIC50: 5.74
[3]
  pIC50: 6.72
[11]
  pIC50: 6.66
[12]
  pIC50: 5.57

## CCONC1=NC(=O)/C(=C/c2cc(C(C)(C)C)c(O)c(C(C)(C)C)c2)O1
[2]
  pIC50: 4.10
[10]
  pIC50: < 4.70
[3]
  pIC50: 6.19
[11]
  pIC50: 5.46

## CONC1=NC(=O)/C(=C/c2cc(C(C)(C)C)c(O)c(C(C)(C)C)c2)S1.C[N+](C)(C)CC[O-]
[5]
  Lesion frequency: 0%
[6]
  ED40: 0.1 mg/kg
[7]
  Gastric damage: 0%
[8]
  ED40: 15.7 mg/kg
[9]
  Inhibition: 32.8%

## C=CCONC1=NC(=O)/C(=C/c2cc(C(C)(C)C)c(O)c(C(C)(C)C)c2)O1
[2]
  pIC50: 4.59
[10]
  pIC50: < 4.70
[3]
  pIC50: 5.72
[11]
  pIC50: 5.40

## CN1C(NC(=N)N)=NC(=O)/C1=C/c1cc(C(C)(C)C)c(O)c(C(C)(C)C)c1
[2]
  pIC50: 4.09
[10]
  pIC50: 5.82
[3]
  pIC50: 6.12
[11]
  pIC50: 7.57

## CS(=O)(=O)c1ccc(-n2nc(C(F)(F)F)cc2-c2ccc(F)cc2)cc1 [SC-58125]
[5]
  Lesion frequency: 0%
[17]
  inhibition: < 20%
[6]
  ED40: 0.3 mg/kg
[7]
  Gastric damage: 0%
[8]
  ED40: > 30 mg/kg
[9]
  Inhibition: -1.58%

## CONC1=NC(=O)/C(=C/c2cc(C(C)(C)C)c(O)c(C(C)(C)C)c2)S1 [listing 2 of 2 here]
[2]
  pIC50: 5.77
[3]
  pIC50: 6.77
[4]
  pIC50: < 4.70

## CC(C)(C)c1cc(/C=C2\SC(=S)NC2=O)cc(C(C)(C)C)c1O
[2]
  pIC50: 5.82
[10]
  pIC50: < 4.70
[3]
  pIC50: 6.41
[11]
  pIC50: 4.62
